Experimental data: ChEMBL document CHEMBL6109146, “Discovery of New Pyrazolone Carbothioamide Derivatives as Potent Antifungal Agents for the Treatment of Candidiasis and Cryptococcosis” (J Med Chem, 2025)
Values after ≈ are worked out from the molar mass of the structure shown. Active and inactive are the calls of the source. The calls are words filed in the database; no cut-off is given here.

How the values were obtained:
Cryptococcus neoformans [1] = assay: Antifungal activity against Cryptococcus neoformans HN-68 assessed as inhibition of fungal growth incubated for 48 to 72 hrs by microplate reader analysis; assay type: functional; conditions: time 48-72 hrs
[2] = Tmax in male ICR mouse at 20 mg/kg, po measured after 24 hrs by LC-MS/MS analysis; assay type: ADME, organism-based; conditions: in vivo
Cryptococcus neoformans [3] = assay: Antifungal activity against Cryptococcus neoformans H99 assessed as inhibition of fungal growth incubated for 48 to 72 hrs by microplate reader analysis; assay type: functional; conditions: time 48-72 hrs
[4] = Reduction in intracellular free iron ions level in Cryptococcus neoformans H99 at 4 microg/ml incubated for 24 hrs by absorbance based analysis relative to control; assay type: functional; set-up: scale not given: the % may be the effect or the level left; conditions: dose 4 µg/ml
Cryptococcus neoformans [5] = assay: Inhibition of matured biofilm in Cryptococcus neoformans H99 at 2 to 32 microg/ml incubated for 24 hrs by XTT reagent based assay; assay type: functional, organism-based; conditions: dose 2-32 µg/ml
Cryptococcus neoformans [6] = assay: Upregulation of SOD1 gene expression in Cryptococcus neoformans H99 at 4 microg/ml incubated for 8 hrs by qRT-PCR analysis; assay type: functional; conditions: dose 4.0 µg/ml
Cryptococcus neoformans [7] = assay: Induction of morphological changes in Cryptococcus neoformans H99 assessed as mitochondrial fragmentation at 4 microg/ml incubated for 8 hrs by transmission electron microscopic analysis; assay type: functional, organism-based; conditions: dose 4.0 µg/ml
Nakaseomyces glabratus [8] = assay: Upregulation of TRX1 gene expression in Candida glabrata 0161 incubated for 8 hrs by qRT-PCR analysis; assay type: functional
[9] = Half-life in male ICR mouse at 2 mg/kg, iv measured after 24 hrs by LC-MS/MS analysis; assay type: ADME, organism-based; conditions: in vivo
Cryptococcus neoformans [10] = assay: Inhibition of capsule formation in Cryptococcus neoformans H99 at 4 microg/ml incubated for 24 hrs by light microscopic analysis; assay type: functional, organism-based; conditions: dose 4.0 µg/ml
Nakaseomyces glabratus [11] = assay: Antifungal activity against Candida glabrata 0161 assessed as inhibition of fungal growth at 0.5 to 32 microg/ml incubated for 48 hrs by spot-plating assay; assay type: functional, organism-based; conditions: dose 0.5-32 µg/ml
[12] = Half-life in male ICR mouse at 20 mg/kg, po measured after 24 hrs by LC-MS/MS analysis; assay type: ADME, organism-based; conditions: in vivo
Cryptococcus neoformans [13] = assay: Upregulation of CAT1 gene expression in Cryptococcus neoformans H99 at 4 microg/ml incubated for 8 hrs by qRT-PCR analysis; assay type: functional; conditions: dose 4.0 µg/ml
Cryptococcus neoformans [14] = assay: Antifungal activity against Cryptococcus neoformans 011409 assessed as inhibition of fungal growth incubated for 48 to 72 hrs by microplate reader analysis; assay type: functional; conditions: time 48-72 hrs
Cryptococcus neoformans [15] = assay: Antifungal activity against Cryptococcus neoformans H99 assessed as inhibition of fungal growth in presence of 1 to 10 microg/ml Fe(III) ion; assay type: functional, organism-based
[16] = AUC (0 to t) in male ICR mouse at 2 mg/kg, iv measured after 24 hrs by LC-MS/MS analysis; assay type: ADME, organism-based; conditions: in vivo
Cryptococcus neoformans [17] = assay: Inhibition of urease production in Cryptococcus neoformans H99 at 0.125 microg/ml by photographic analysis relative to control; assay type: functional
[18] = AUC (0 to infinity) in male ICR mouse at 20 mg/kg, po measured after 24 hrs by LC-MS/MS analysis; assay type: ADME, organism-based; conditions: in vivo
Candida albicans = assay: Antifungal activity against Candida albicans SC5314 assessed as inhibition of fungal growth incubated for 48 to 72 hrs by microplate reader analysis; assay type: functional, organism-based; conditions: time 48-72 hrs
Cryptococcus neoformans [19] = assay: Upregulation of TSA1 gene expression in Cryptococcus neoformans H99 at 4 microg/ml incubated for 8 hrs by qRT-PCR analysis; assay type: functional; conditions: dose 4.0 µg/ml
Cryptococcus neoformans [20] = assay: Induction of morphological changes in Cryptococcus neoformans H99 assessed as cell wall damage at 4 microg/ml incubated for 8 hrs by transmission electron microscopic analysis; assay type: functional, organism-based; conditions: dose 4.0 µg/ml
Nakaseomyces glabratus [21] = assay: Inhibition of matured biofilm in Candida glabrata 0161 at 2 to 32 microg/ml incubated for 24 hrs by XTT reagent based assay; assay type: functional, organism-based; conditions: dose 2-32 µg/ml
[Candida] auris = Antifungal activity against Candida auris 0030 assessed as inhibition of fungal growth incubated for 48 to 72 hrs by microplate reader analysis; assay type: functional, organism-based; conditions: Candidozyma auris, time 48-72 hrs
Cryptococcus neoformans [22] = assay: Antifungal activity against Cryptococcus neoformans H99 assessed as inhibition of fungal growth at 0.031 microg/ml incubated for 72 hrs by microplate reader analysis; assay type: functional, organism-based; conditions: dose 0.031 µg/ml
Cryptococcus neoformans [23] = assay: Antifungal activity against Cryptococcus neoformans H99 infected in cryptococcosis female ICR mouse model assessed as reduction in cytoplasmic loosening at 20 mg/kg, ip pre-infected with fungi for 3 hrs followed by compound administration and measured after 5 days by H and E staining based analysis; assay type: functional, organism-based; conditions: time 5.0 day
Nakaseomyces glabratus [24] = assay: Upregulation of GPX1 gene expression in Candida glabrata 0161 incubated for 8 hrs by qRT-PCR analysis; assay type: functional
Cryptococcus neoformans [25] = assay: Antifungal activity against Cryptococcus neoformans H99 infected in cryptococcosis female ICR mouse model assessed as reduction in fungal burden in brain at 20 mg/kg, po pre-infected with fungi for 3 hrs followed by compound administration and measured after 5 days; assay type: functional, organism-based; conditions: time 5.0 day
Nakaseomyces glabratus [26] = assay: Antifungal activity against Candida glabrata 0161 assessed as inhibition of fungal growth incubated for 48 to 72 hrs by microplate reader analysis; assay type: functional; conditions: time 48-72 hrs
[27] = Cmax in male ICR mouse at 2 mg/kg, iv measured after 24 hrs by LC-MS/MS analysis; assay type: ADME, organism-based; conditions: in vivo
Nakaseomyces glabratus [28] = assay: Antifungal activity against Candida glabrata 0161 assessed as inhibition of fungal growth in presence of 10% serum containing transferrin-bound ferric iron and free iron; assay type: functional, organism-based
[29] = AUC (0 to t) in male ICR mouse at 20 mg/kg, po measured after 24 hrs by LC-MS/MS analysis; assay type: ADME, organism-based; conditions: in vivo
Cryptococcus neoformans [30] = assay: Antifungal activity against Cryptococcus neoformans H99 infected in cryptococcosis female ICR mouse model assessed as reduction in vacuolation in brain at 5 mg/kg, ip pre-infected with fungi for 3 hrs followed by compound administration and measured after 5 days by H and E staining based analysis; assay type: functional, organism-based; conditions: time 5.0 day
Nakaseomyces glabratus [31] = assay: Upregulation of CAT1 gene expression in Candida glabrata 0161 incubated for 8 hrs by qRT-PCR analysis; assay type: functional
Candida glabrata = assay: Binding affinity to Candida glabrata KIX domain assessed as inhibition constant
Cryptococcus neoformans [32] = assay: Antifungal activity against Cryptococcus neoformans H99 assessed as inhibition of fungal growth by measuring fold increase in MIC in presence of Fe(II) ion; assay type: functional
Nakaseomyces glabratus [33] = assay: Reduction in intracellular free iron ions level in Candida glabrata 0161 incubated for 24 hrs by absorbance based analysis; assay type: functional
[34] = Cytotoxicity against HUVEC cells assessed as inhibition of cell proliferation incubated for 48 hrs by WST-8 reagent based assay; assay type: toxicity; conditions: human
[35] = Cmax in male ICR mouse at 20 mg/kg, po measured after 24 hrs by LC-MS/MS analysis; assay type: ADME, organism-based; conditions: in vivo
Cryptococcus neoformans [36] = assay: Induction of morphological changes in Cryptococcus neoformans H99 assessed as vacuole fragmentation at 4 microg/ml incubated for 8 hrs by transmission electron microscopic analysis; assay type: functional, organism-based; conditions: dose 4.0 µg/ml
Cryptococcus neoformans [37] = assay: Fungicidal activity against Cryptococcus neoformans H99 incubated for 72 hrs by time-kill kinetics analysis; assay type: functional
[38] = Tmax in male ICR mouse at 2 mg/kg, iv measured after 24 hrs by LC-MS/MS analysis; assay type: ADME, organism-based; conditions: in vivo
Nakaseomyces glabratus [39] = assay: Upregulation of TSA1 gene expression in Candida glabrata 0161 incubated for 8 hrs by qRT-PCR analysis; assay type: functional
Nakaseomyces glabratus [40] = assay: Antifungal activity against Candida glabrata 9256 assessed as inhibition of fungal growth incubated for 48 to 72 hrs by microplate reader analysis; assay type: functional; conditions: time 48-72 hrs

## Nc1cc(=O)n(C(=S)Nc2ccc(C3CCCCC3)cc2)[nH]1
Cryptococcus neoformans [1]
  MIC80: 1.2 10^-4 ug/ml
[2]
  Tmax: 15 min
Cryptococcus neoformans [3]
  MIC80: 0.38 nM (≈ 0.12 ng/mL)
[4]
  Activity: ~80%
Cryptococcus neoformans [5]
  inhibition: Active; Better Inhibitory Effect Observed Under High Concentration
Cryptococcus neoformans [6]
  Activity: Active
Cryptococcus neoformans [7]
  Activity: Active
Nakaseomyces glabratus [8]
  Activity: Active
[9]
  half-life: 127 min
Cryptococcus neoformans [10]
  inhibition: Active
Nakaseomyces glabratus [11]
  Activity: Active
[12]
  half-life: 87.6 min
Cryptococcus neoformans [13]
  Activity: Active
Cryptococcus neoformans [14]
  MIC80: 1.2 10^-4 ug/ml
Cryptococcus neoformans [15]
  Activity: inactive
[16]
  AUC(0-t) at 24 h: 2040 ng·h/mL
Cryptococcus neoformans [17]
  inhibition at 0.125 µg/mL: 100%
[18]
  AUC(0-inf): 4740 ng·h/mL
Candida albicans
  Activity: Active
Cryptococcus neoformans [19]
  Activity: Active
Cryptococcus neoformans [20]
  Activity: inactive
Nakaseomyces glabratus [21]
  inhibition: Moderate_effect
[Candida] auris
  Activity: Active
Cryptococcus neoformans [22]
  Activity: Active; Significantly Better Inhibitory Effect Observed Than Fluconazole At 8.0 Microg/Ml
Cryptococcus neoformans [23]
  Activity: Active
Nakaseomyces glabratus [24]
  Activity: Active
Cryptococcus neoformans [25]
  Activity: Active
Nakaseomyces glabratus [26]
  MIC80: 0.38 nM (≈ 0.12 ng/mL)
[27]
  Cmax: 2810 ng/mL
Nakaseomyces glabratus [28]
  Activity: inactive
[29]
  AUC(0-t) at 24 h: 4600 ng·h/mL
Cryptococcus neoformans [30]
  Activity: Not active; Slight Vacuolation Observed
Nakaseomyces glabratus [31]
  Activity: Active
Candida glabrata
  K: 174 µM
Cryptococcus neoformans [32]
  fold change (FC): ~1000
Nakaseomyces glabratus [33]
  Activity: Active
[34]
  IC50 at 48 h: 0.64 µg/mL (≈ 2.02 µM)
[35]
  Cmax: 1720 ng/mL
Cryptococcus neoformans [36]
  Activity: Active
Cryptococcus neoformans [37]
  MFC: 16 µg/mL (≈ 50.6 µM)
[38]
  Tmax: 4.98 min
Nakaseomyces glabratus [39]
  Activity: Active
Nakaseomyces glabratus [40]
  MIC80: 1.2 10^-4 ug/ml
